Values quoted from earlier work in patent US12458674B2, “M13 phage based gene therapy platform” (Massachusetts Institute of Technology, priority 2021, dated 2025).

Details: in vivo

Structure (SMILES): Cn1nnc2c(C(N)=O)ncn2c1=O [temozolomide]
- CSF to plasma ratio: about 20%
